According to patent US10934267B2, “Alpha-tea salt forms: compositions and uses for treating disease” (Research Development Foundation, priority 2013, dated 2021):
Blank lines part the entries; values can stand above or below the molecule they belong to.

Key:
[1] = Static humidity experiments, gravimetric weight change; assay type: physicochemical
Description: Formation of hydrates can be a very slow kinetic process. A second approach to identify hydrate formation is performing static humidity experiments and monitor gravimetrically for weight change.

[2] = Stability of stressed salts and free acid by HPLC total area normalization; conditions: for Stability compared to free acid: Table 6 summary, in solution
Procedure: The scaled up salts and free acid were challenged by heat (solids stored at 25 and 60° C. for 1 week), oxidation (solids stored in oxygen headspace at 25° C. for 1 week), light (solids exposed≥1×ICH International Conference on Harmonization of Technical Requirements for Registration of Pharmaceuticals for Human Use UV confirmatory conditions), and solutions (HPLC diluent-methanol) at 25 and 40° C. for 1 week.
These samples were analyzed, along with unstressed controls, by HPLC to characterize their stability.
Salt candidates were analyzed by total area normalization (TAN). The samples were dissolved in methanol at a concentration of 0.8 mg/mL.
The three salts (lysine, arginine, and tris) were challenged using heat (solids stored at 25 and 60° C. for 1 week), oxidation (solids stored in oxygen headspace at 25° C. for 1 week), light (UV source under ICH confirmatory conditions>200 Whr/m^2), and solutions (in HPLC diluent) at 25 and 40° C. for 1 week. Stressed samples were analyzed using HPLC to determine their impurity profiles.

4T1 mammary tumor = assay: Anti-tumor efficacy in 4T1 mouse model of metastatic mammary cancer; assay type: in vivo, BALB/c mice; conditions: diet with 3 g/kg chow (0.3% w/w), started 9 days post tumor injection
Description: The lysine salt was incorporated into standard mouse chow at an amount of 3 g/kg chow (0.3% w/w) by Harlan Teklad, Madison Wis. Half of the mice were placed on an α-TEA-Lys diet after the tumors were established (9 days post tumor injection.) and the rest placed on an analogous nutrient diet without α-TEA-Lys which served as the control group.

[3] = cited from earlier work; for Counter Ion Class: Table 6 summary; for Class (safety and pharmaceutical acceptability of the counter-ions): salt forming base
[4] = Hygroscopicity - Dynamic Vapor Sorption (DVS); conditions: for Hydration properties DVS: hydrate formed: Table 6 summary; for DVS total weight gain: at 95% RH, 25° C.
Procedure: DVS is a gravimetric screening technique that measures how quickly and how much of a solvent (water) is adsorbed by a sample. The relative humidity or vapor concentration surrounding the sample is varied while the change in mass of the sample is measured. […] The mass values at each relative humidity step are used to generate the isotherm. Isotherms are divided in two components: sorption for increasing humidity steps and desorption for decreasing humidity steps.
Samples were analyzed using a TA Q2000 automated dynamic vapor sorption analyzer. The samples were dried at 40° C. for 5 hours and then cooled to 25° C. with a dry nitrogen purge over them until they no longer lost mass at 0% RH.

physchem = conditions: buffered water, pH 4, aqueous buffer, thermodynamic from solid
Procedure: Milligram size (2 mg) quantities of each sample were placed into a vial. Buffered water (pH 4, 7, and 10) was added and the vials were stirred for a few minutes, followed by visual observation for remaining solids. The solvent was incrementally added until the solids were dissolved, or a maximum volume of solvent (10 mL) was added and the experiment was terminated.

[5] = salt forming base; cited from earlier work
[6] = Oxidation Ambient (oxygen headspace, 25° C., 1 week)
[7] = Photo Stability Exposed (UV, ICH confirmatory conditions)
[8] = Solid State Ambient (25° C., 1 week)
[9] = Solution 40° C. Methanol, 1 week
[10] = Solution Ambient Methanol, 1 week

SMILES: Cc1c(C)c2c(c(C)c1OCC(=O)O)CCC(C)(CCCC(C)CCCC(C)CCCC(C)C)O2.NCCCC[C@H](N)C(=O)O (stereo not drawn) [α-TEA lysine salt]
- Hydration properties Static 75% RH 30 Days, weight gain ([1]; 75% RH): 0.6 wt% wt %
- static humidity weight gain ([1]; 75% RH, 33 days): 0.6%
- static humidity weight gain ([1]; 84% RH, 9 days): 1.8%
- HLPC Total Area Normalization - Area % Purity [2, 6]: 98.8 Area %
- HLPC Total Area Normalization - Area % Purity ([2]; Photo Stability Dark Control): 98.7 Area %
- HLPC Total Area Normalization - Area % Purity [2, 7]: 98.8 Area %
- HLPC Total Area Normalization - Area % Purity ([2]; Solid State 60° C., 1 week): 98.7 Area %
- HLPC Total Area Normalization - Area % Purity [2, 8]: 98.8 Area %
- HLPC Total Area Normalization - Area % Purity [2, 9]: 98.2 Area %
- HLPC Total Area Normalization - Area % Purity [2, 10]: 98.8 Area %
- Stability compared to free acid [2]: more stable
- average tumor size compared to control diet (4T1 mammary tumor): significant decrease in average tumor size
- complete tumor regression, share of the mice treated (4T1 mammary tumor): about 25%
- survival compared to control diet (Kaplan-Meier) (4T1 mammary tumor): increased survival
- Counter Ion Class [3]: I
- Hydration properties DVS: hydrate formed [4]: hydrate
- DVS total weight gain [4]: about 12%
- DVS residual weight after desorption cycle ([4]; corresponds to a putative hydrate): 2 weight %

- HLPC Total Area Normalization - Area % Purity [2, 6]: 97.8 Area %
- HLPC Total Area Normalization - Area % Purity ([2]; Photo Stability Dark Control): 97.7 Area %
- HLPC Total Area Normalization - Area % Purity [2, 7]: 98.2 Area %
- HLPC Total Area Normalization - Area % Purity ([2]; Solid State 60° C., 1 week): 98.0 Area %
- HLPC Total Area Normalization - Area % Purity [2, 8]: 97.8 Area %
- HLPC Total Area Normalization - Area % Purity [2, 9]: 94.6 Area %
- HLPC Total Area Normalization - Area % Purity [2, 10]: 96.0 Area %
- solubility (physchem): < 200 µg/mL
- DVS total weight gain [4]: about 0.2%
SMILES: Cc1c(C)c2c(c(C)c1OCC(=O)O)CC[C@@](C)(CCC[C@H](C)CCC[C@H](C)CCCC(C)C)O2 [α-TEA free acid, α-tocopheryloxyacetic acid, reference compound]
- DVS conclusion on hydrate formation / deliquescence ([4]; 0 to 95% RH): does not form hydrates or exhibit deliquescence

SMILES: Cc1c(C)c2c(c(C)c1OCC(=O)O)CCC(C)(CCCC(C)CCCC(C)CCCC(C)C)O2.N=C(N)NCCC[C@H](N)C(=O)O (stereo not drawn) [α-TEA arginine salt]
- Hydration properties Static 75% RH 30 Days, weight gain ([1]; 75% RH): 0.7 wt %
- static humidity weight gain ([1]; 75% RH, 33 days): 0.7%
- static humidity weight gain ([1]; 84% RH, 9 days): 2.3%
- HLPC Total Area Normalization - Area % Purity [2, 6]: 98.4 Area %
- HLPC Total Area Normalization - Area % Purity ([2]; Photo Stability Dark Control): 97.9 Area %
- HLPC Total Area Normalization - Area % Purity [2, 7]: 98.5 Area %
- HLPC Total Area Normalization - Area % Purity ([2]; Solid State 60° C., 1 week): 98.6 Area %
- HLPC Total Area Normalization - Area % Purity [2, 8]: 98.6 Area %
- HLPC Total Area Normalization - Area % Purity [2, 9]: 98.2 Area %
- HLPC Total Area Normalization - Area % Purity [2, 10]: 98.4 Area %
- Stability compared to free acid [2]: more stable
- Counter Ion Class [3]: I
- Hydration properties DVS: hydrate formed [4]: hemihydrate

SMILES: [Ca+2].[OH-].[OH-] [calcium hydroxide]
- Class (safety and pharmaceutical acceptability of the counter-ions) [3]: I

SMILES: [Mg+2].[OH-].[OH-] [magnesium hydroxide]
- Class (safety and pharmaceutical acceptability of the counter-ions) [3]: I

SMILES: C[N+](C)(C)CCO [Choline]
- pKa [5]: >11
- Class (safety and pharmaceutical acceptability of the counter-ions) [3]: I

SMILES: CN(C)CCO [deanol, N,N-dimethylethanolamine, N,N-dimethylethanolamine]
- pKa [5]: 8.8

SMILES: Cc1c(C)c2c(c(C)c1OCC(=O)O)CCC(C)(CCCC(C)CCCC(C)CCCC(C)C)O2.NC(CO)(CO)CO (stereo not drawn) [α-TEA tris salt]
- Hydration properties Static 75% RH 30 Days, weight gain ([1]; 75% RH): 4.0 wt %
- static humidity weight gain ([1]; 75% RH, 33 days): 4.0%
- HLPC Total Area Normalization - Area % Purity [2, 6]: 98.5 Area %
- HLPC Total Area Normalization - Area % Purity ([2]; Photo Stability Dark Control): 98.2 Area %
- HLPC Total Area Normalization - Area % Purity [2, 7]: 98.7 Area %
- HLPC Total Area Normalization - Area % Purity ([2]; Solid State 60° C., 1 week): 98.4 Area %
- HLPC Total Area Normalization - Area % Purity [2, 8]: 98.6 Area %
- HLPC Total Area Normalization - Area % Purity [2, 9]: 98.2 Area %
- HLPC Total Area Normalization - Area % Purity [2, 10]: 98.5 Area %
- Stability compared to free acid [2]: more stable
- Hydration properties DVS: hydrate formed [4]: hemihydrate

SMILES: N=C(N)NCCC[C@H](N)C(=O)O [L-Arginine]
- Class (safety and pharmaceutical acceptability of the counter-ions) [3]: I

SMILES: NCCCC[C@H](N)C(=O)O [L-Lysine]
- Class (safety and pharmaceutical acceptability of the counter-ions) [3]: I

SMILES: [K+].[OH-] [potassium hydroxide]
- Class (safety and pharmaceutical acceptability of the counter-ions) [3]: I
